Results taken from ChEMBL document CHEMBL3045674, “Synthesis of N-[3-(acetylthio)alkanoyl] and N-[3-mercaptoalkanoyl]-4-(s)-(phenylmethyl) pyroglutamic acids and prolines as potent ACE inhibitors” (2009).
Calls of active or inactive are those of the source. No cut-off for these calls is given here.

Legend:
Rattus norvegicus [1] = test: Antihypertensive activity in Rattus norvegicus Sprague-Dawley (rat) assessed as inhibition of angiotensin-1-induced increase in blood pressure at 30 ug/kg, iv administered 5 min before angiotensin-1 challenge; assay type: functional
Rattus norvegicus [2] = test: Antihypertensive activity in Rattus norvegicus Sprague-Dawley (rat) assessed as inhibition of angiotensin-1-induced increase in blood pressure at 10 ug/kg, iv administered 5 min before angiotensin-1 challenge; assay type: functional

Structure (SMILES) | inhibition in vivo at 0.03 mg/kg (Rattus norvegicus [1]) [%] | inhibition in vivo at 0.01 mg/kg (Rattus norvegicus [2]) [%] | inhibition (Rattus norvegicus [2])
CC(=O)SCCC(=O)N1C(=O)[C@@H](Cc2ccccc2)C[C@H]1C(=O)O | 20 | 13 | –
CC(=O)SC[C@@H](C)C(=O)N1C[C@@H](Cc2ccccc2)C[C@H]1C(=O)O | – | 22 | –
CC(=O)SC[C@@H](C)C(=O)N1C(=O)[C@@H](Cc2ccccc2)C[C@H]1C(=O)O | 60 | – | inactive
C[C@H](CS)C(=O)N1CCC[C@H]1C(=O)O [CAPTOPRIL] | – | 60 | –
